Assay [1] concerns the target T1, Sodium- and chloride-dependent GABA transporter 2 (Homo sapiens) (UniProt Q9NSD5).
T1 sequence (whole entry): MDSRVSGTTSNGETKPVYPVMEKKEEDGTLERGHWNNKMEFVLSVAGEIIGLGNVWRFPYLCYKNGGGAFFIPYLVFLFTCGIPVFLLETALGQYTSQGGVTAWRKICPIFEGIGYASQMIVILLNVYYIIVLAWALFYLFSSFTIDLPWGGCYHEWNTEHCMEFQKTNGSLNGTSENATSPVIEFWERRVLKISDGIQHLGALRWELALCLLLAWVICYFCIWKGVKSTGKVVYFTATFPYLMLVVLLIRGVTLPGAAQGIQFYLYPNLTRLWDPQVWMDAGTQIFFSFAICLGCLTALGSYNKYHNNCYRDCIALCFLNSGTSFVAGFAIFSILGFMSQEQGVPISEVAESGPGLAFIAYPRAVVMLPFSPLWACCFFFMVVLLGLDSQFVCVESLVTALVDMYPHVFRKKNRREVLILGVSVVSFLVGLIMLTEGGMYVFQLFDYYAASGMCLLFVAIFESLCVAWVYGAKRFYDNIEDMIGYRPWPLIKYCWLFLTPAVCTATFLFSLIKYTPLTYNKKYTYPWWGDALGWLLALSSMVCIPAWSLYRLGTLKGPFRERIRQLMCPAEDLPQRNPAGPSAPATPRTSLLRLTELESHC
Kind of assay: Inhibition of human GAT2 expressed in CHO cells assessed as reduction in [3H]GABA uptake at 100 uM after 20 mins by liquid scintillation counting analysis relative to control. Type of assay: cell-based.

Assay [2] concerns the target T2, Sodium- and chloride-dependent GABA transporter 3 (Homo sapiens) (UniProt P48066).
T2 sequence (whole entry): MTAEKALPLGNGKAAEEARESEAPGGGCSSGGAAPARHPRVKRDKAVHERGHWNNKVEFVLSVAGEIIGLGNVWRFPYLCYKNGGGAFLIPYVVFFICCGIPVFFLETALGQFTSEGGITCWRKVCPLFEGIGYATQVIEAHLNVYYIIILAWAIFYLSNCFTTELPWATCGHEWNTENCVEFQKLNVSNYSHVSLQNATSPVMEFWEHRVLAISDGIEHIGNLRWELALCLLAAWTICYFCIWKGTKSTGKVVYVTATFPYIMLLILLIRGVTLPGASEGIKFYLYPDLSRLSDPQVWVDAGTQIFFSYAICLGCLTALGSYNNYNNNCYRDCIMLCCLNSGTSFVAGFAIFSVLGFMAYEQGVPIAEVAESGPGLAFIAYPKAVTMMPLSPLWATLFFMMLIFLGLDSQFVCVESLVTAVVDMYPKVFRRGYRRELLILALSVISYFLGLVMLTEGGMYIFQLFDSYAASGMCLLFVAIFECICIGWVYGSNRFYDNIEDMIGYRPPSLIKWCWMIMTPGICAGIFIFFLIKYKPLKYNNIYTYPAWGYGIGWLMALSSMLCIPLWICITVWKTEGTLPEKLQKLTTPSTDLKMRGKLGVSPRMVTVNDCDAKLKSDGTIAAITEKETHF
As to the kind of experiment: Inhibition of human GAT3 expressed in CHO cells assessed as reduction in [3H]GABA uptake at 100 uM after 20 mins by liquid scintillation counting analysis relative to control. Type of assay: cell-based.

The target of assay [3] is T3, Sodium- and chloride-dependent betaine transporter (Homo sapiens) (UniProt P48065).
T3 sequence (whole entry): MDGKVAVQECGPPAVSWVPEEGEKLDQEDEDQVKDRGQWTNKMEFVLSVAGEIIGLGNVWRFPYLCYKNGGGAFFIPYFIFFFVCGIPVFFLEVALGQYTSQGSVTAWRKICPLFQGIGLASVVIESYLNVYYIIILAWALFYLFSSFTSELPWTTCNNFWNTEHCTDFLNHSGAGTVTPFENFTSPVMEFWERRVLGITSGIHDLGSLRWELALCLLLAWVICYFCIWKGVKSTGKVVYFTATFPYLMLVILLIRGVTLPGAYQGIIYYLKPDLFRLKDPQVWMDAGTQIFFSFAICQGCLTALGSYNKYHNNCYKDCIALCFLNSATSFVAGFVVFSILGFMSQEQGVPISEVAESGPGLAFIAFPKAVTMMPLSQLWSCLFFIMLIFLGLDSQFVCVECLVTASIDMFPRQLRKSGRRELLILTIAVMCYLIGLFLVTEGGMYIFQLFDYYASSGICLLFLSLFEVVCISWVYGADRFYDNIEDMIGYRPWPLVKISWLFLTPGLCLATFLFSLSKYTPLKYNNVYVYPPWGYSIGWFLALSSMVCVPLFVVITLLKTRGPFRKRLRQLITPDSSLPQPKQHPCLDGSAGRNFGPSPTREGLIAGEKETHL
Kind of assay: Inhibition of human BGT1 expressed in CHO cells assessed as reduction in [3H]GABA uptake at 100 uM after 20 mins by liquid scintillation counting analysis relative to control. It is filed as cell-based.

Assay [4] addresses Sodium- and chloride-dependent GABA transporter 1 (Homo sapiens) (UniProt P30531). Kind of assay: Inhibition of human GAT1 expressed in CHO cells assessed as reduction in [3H]GABA uptake at 100 uM after 20 mins by liquid scintillation counting analysis relative to control. Type of assay: cell-based.
The species entered for a further assay is Homo sapiens. Kind of assay: Selectivity for human BGT1 over human GAT3.

SMILES strings stand for the structures.

What is called inhibition is the drop in the measured response relative to a control, in per cent.

Sequence of Sodium- and chloride-dependent GABA transporter 1 (Homo sapiens) (P30531 whole entry, looked up): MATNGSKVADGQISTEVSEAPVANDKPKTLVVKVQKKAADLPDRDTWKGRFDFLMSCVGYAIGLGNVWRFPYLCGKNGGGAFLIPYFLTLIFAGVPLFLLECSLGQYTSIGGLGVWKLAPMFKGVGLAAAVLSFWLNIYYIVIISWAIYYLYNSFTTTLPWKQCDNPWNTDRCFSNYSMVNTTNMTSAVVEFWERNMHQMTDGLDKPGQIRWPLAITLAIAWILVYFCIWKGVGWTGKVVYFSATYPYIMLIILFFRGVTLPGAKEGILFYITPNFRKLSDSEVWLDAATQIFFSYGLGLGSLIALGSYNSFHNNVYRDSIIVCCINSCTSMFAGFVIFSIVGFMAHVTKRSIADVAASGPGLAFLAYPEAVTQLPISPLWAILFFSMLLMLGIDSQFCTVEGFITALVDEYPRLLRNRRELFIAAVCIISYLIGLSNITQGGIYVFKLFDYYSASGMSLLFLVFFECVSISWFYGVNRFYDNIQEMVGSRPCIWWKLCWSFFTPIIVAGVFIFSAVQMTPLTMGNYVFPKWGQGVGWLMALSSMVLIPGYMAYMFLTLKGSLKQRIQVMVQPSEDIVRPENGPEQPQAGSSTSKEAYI

In the case of `C=C[C@@H](C(=O)O)[C@@H]1C[C@H]1N`, the values for the inhibition in assay [1] and in assay [2] were -9.5% and -3.6%, respectively.

As for `C[C@H](C(=O)O)[C@@H]1C[C@H]1N`, the figures for the inhibition in assay [3], in assay [2] and in assay [4] were 57.3%, 25.6% and 0%, respectively.

Turning to `N[C@@H]1C[C@H]1[C@@H](O)C(=O)O`, the inhibition in assay [1] was 20.1%; in assay [3] it was 44.7%; in assay [2], 8.3%. The Selectivity ratio in the assay filed under Homo sapiens fell in the range of 5 to 7.

`[N-]=[N+]=N[C@@H](C(=O)O)[C@@H]1C[C@H]1N`: the figures for the inhibition in assay [1], in assay [3] and in assay [2] were 6.8%, 57.2% and 11.8%, respectively. Besides, the Selectivity ratio in the assay listed under Homo sapiens lay in the range of 5 to 7.

Take `CC[C@@H](C(=O)O)[C@@H]1C[C@H]1N`: the inhibition in assay [1] is 3.3%; in assay [3], 13.4%; in assay [2] it was -2.4%; in assay [4], 8.6%.

On to `CC[C@H](C(=O)O)[C@@H]1C[C@H]1N`, for which the inhibition in assay [1] was -2.4%; in assay [3], -1.3%; in assay [4], 12.2%.

For `N[C@@H]1C[C@H]1[C@@H](F)C(=O)O`, the values for the inhibition in assay [1], in assay [3] and in assay [2] were 45.3%, 22.2% and 5.2%, respectively.

Regarding `C[C@@H](C(=O)O)[C@@H]1C[C@H]1N`, the inhibition in assay [1] is -5.2%; in assay [3], 62.7%; in assay [2], 9.3%; in assay [4], 4.3%. The Selectivity ratio in the assay filed under Homo sapiens is 5 to 7.

These data come from ChEMBL document CHEMBL4265902, “Design and synthesis of cyclopropane-based conformationally restricted GABA analogues as selective inhibitors for betaine/GABA transporter 1” (Bioorg Med Chem Lett, 2018).
